*1 amine or outer side, *2 acyl side, *3 side chain or, on linkers, in order; H or OH if unused. Where a SMILES comes first, the peptide text is derived from it. Bridges are numbered along the chain shown (N, C = ends). [ ]: non-standard residue; d: D form. The star is where a group is joined. X2 = C[C@H]1CC[C@@H](N2CCN(c3ccc(-c4nnc(-c5ccc(C(=O)*)cc5)s4)cc3)CC2)CC1; X1 = O=C(c1ccc(-c2nnc(-c3ccc(N4CCN(C5CCCCC5)CC4)cc3)s2)cc1)*; Orn(3R-OH,Nδ-CH(CH2OH)2) = N[C@H](C(=O)O)[C@H](O)CCNC(CO)CO; hTyr(βR-OH,3-OMe) = COc1cc(C[C@@H](O)[C@H](N)C(=O)O)ccc1O; Orn(4R-OH) = O=C([C@H](C[C@@H](O)CN[*:3])N[*:1])[*:2]; Pro(3S-OH,4S-Me) = C[C@H]1CN[C@H](C(=O)O)[C@H]1O; Orn(3R-OH) = NCC[C@@H](O)[C@H](N)C(=O)O; Hyp = O=C(O)[C@@H]1C[C@@H](O)CN1
Each compound was assayed on Candida albicans FP-633. Settings: FP-633, pH 7.3.
Assay type: cell-based
Description: In vitro antimicrobial activity of the object compound of Examples 1, 7, 12 and 19 disclosed later was determined by MICs in mouse serum as described below.
The MIC5 in mouse serum were determined by the microdilution method using ICR mouse serum buffered with 20 mM HEPES buffer (pH 7.3) as a test medium. Inoculum suspension of 10^6 cells/ml were prepared by a hemocytometric procedure and diluted to obtain an inoculum size of approximately 1.0×10^3 cells/ml. Microplates were incubated at 37° C. for […] in 5% CO2. The MICs was defined as the lowest concentrations at which no visible growth was observed.

MIC [µg/mL] | Compound
<0.2 | COc1cc(C[C@@H](O)[C@@H]2NC(=O)[C@@H]3C[C@@H](O)CN3C(=O)[C@H]([C@@H](C)O)NC(=O)[C@@H](NC(=O)c3ccc(-c4nnc(-c5ccc(N6CCN([C@H]7CC[C@@H](C)CC7)CC6)cc5)s4)cc3)C[C@@H](O)CNC(=O)[C@@H]3[C@@H](O)[C@@H](C)CN3C(=O)[C@H]([C@H](O)CCN)NC2=O)ccc1O [Example 1] (X2-[Orn(4R-OH)]T[Hyp][hTyr(βR-OH,3-OMe)][Orn(3R-OH)][Pro(3S-OH,4S-Me)]; lactam 1-C)
<0.2 | COc1cc(C[C@@H](O)[C@@H]2NC(=O)[C@@H]3C[C@@H](O)CN3C(=O)[C@H]([C@@H](C)O)NC(=O)[C@@H](NC(=O)c3ccc(-c4nnc(-c5ccc(N6CCN(C7CCCCC7)CC6)cc5)s4)cc3)C[C@@H](O)CNC(=O)[C@@H]3[C@@H](O)[C@@H](C)CN3C(=O)[C@H]([C@H](O)CCN)NC2=O)ccc1O [Example 7] (X1-[Orn(4R-OH)]T[Hyp][hTyr(βR-OH,3-OMe)][Orn(3R-OH)][Pro(3S-OH,4S-Me)]; lactam 1-C)
<0.2 | COc1cc(C[C@@H](O)[C@@H]2NC(=O)[C@@H]3C[C@@H](O)CN3C(=O)[C@H]([C@@H](C)O)NC(=O)[C@@H](NC(=O)c3ccc(-c4nnc(-c5ccc(N6CCN([C@H]7CC[C@@H](C)CC7)CC6)cc5)s4)cc3)C[C@@H](O)CNC(=O)[C@@H]3[C@@H](O)[C@@H](C)CN3C(=O)[C@H]([C@H](O)CCNC(CO)CO)NC2=O)ccc1O [Example 19] (X2-[Orn(4R-OH)]T[Hyp][hTyr(βR-OH,3-OMe)][Orn(3R-OH,Nδ-CH(CH2OH)2)][Pro(3S-OH,4S-Me)]; lactam 1-C)
